# From ChEMBL document CHEMBL1201862, “PubChem BioAssay data set” (2004)
# The source made the active and inactive calls.
# Experiments:
# Large T antigen = Large T antigen (Simian virus 40, UniProt P03070); format: functional, Betapolyomavirus macacae;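 further: Confirmatory-stage PubChem screen for compounds that inhibit SV40 T antigen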
# [1] = molecular target: FAD-linked sulfhydryl oxidase ALR (Homo sapiens, UniProt P55789); test: inhibitors of human ALR sulfhydryl oxidase, dose response, biochemical, H2O2 detection, luminescence, cherry-pick (AID 493248)
# FAD-linked sulfhydryl oxidase ALR, sequence (P55789 whole entry): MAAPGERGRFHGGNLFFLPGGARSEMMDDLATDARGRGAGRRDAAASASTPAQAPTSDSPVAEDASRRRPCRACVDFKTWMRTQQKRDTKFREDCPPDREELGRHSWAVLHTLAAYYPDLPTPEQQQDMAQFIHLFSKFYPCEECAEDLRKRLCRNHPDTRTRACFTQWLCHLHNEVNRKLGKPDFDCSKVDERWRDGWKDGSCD
# [2] = molecular target: T1, Microphthalmia-associated transcription factor (Homo sapiens, UniProt O75030); test: TRPM1 promoter luciferase signal decrease, dose response, MITF inhibitor project, cell-based, SK-MEL-5, cherry-picked, set 3 (AID 493073); format: functional
# T1 sequence (O75030 whole entry): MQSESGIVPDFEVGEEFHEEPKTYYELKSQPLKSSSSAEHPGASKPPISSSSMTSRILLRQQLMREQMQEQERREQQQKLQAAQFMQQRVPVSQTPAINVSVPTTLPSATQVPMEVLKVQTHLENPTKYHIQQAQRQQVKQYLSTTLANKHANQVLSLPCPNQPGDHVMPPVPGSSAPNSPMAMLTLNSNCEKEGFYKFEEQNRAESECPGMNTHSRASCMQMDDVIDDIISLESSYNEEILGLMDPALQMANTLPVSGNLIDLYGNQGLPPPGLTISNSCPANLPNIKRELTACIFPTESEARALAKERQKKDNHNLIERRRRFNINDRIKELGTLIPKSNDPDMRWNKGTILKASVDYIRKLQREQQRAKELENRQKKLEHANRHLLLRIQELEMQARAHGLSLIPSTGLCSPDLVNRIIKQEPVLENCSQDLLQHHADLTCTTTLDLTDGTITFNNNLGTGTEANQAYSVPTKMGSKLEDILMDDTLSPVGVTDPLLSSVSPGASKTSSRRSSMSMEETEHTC
# A-375 [3] = test: MITF: Counter assay: A375 proliferation Measured in Cell-Based System Using Plate Reader - 2084-03_Inhibitor_Dose_DryPowder_Activity. [Related pubchem assays (depositor defined):AID488944]; format: functional; conditions: Homo sapiens
# A-375 [4] = test: A375 melanoma cell viability reduction, dose response, counter-screen for MITF modulator project, cherry-pick samples, set 2 (AID 540335); format: functional, cell-based; conditions: Homo sapiens
# [5] = molecular target: Beta-adrenergic receptor kinase 1 (Homo sapiens, UniProt P25098); test: GRK2 inhibitors displacing RNA aptamer, dose response, biochemical, flow cytometry beads, FAM-aptamer, powder set 1 (AID 588720)
# Beta-adrenergic receptor kinase 1, sequence (P25098 whole entry): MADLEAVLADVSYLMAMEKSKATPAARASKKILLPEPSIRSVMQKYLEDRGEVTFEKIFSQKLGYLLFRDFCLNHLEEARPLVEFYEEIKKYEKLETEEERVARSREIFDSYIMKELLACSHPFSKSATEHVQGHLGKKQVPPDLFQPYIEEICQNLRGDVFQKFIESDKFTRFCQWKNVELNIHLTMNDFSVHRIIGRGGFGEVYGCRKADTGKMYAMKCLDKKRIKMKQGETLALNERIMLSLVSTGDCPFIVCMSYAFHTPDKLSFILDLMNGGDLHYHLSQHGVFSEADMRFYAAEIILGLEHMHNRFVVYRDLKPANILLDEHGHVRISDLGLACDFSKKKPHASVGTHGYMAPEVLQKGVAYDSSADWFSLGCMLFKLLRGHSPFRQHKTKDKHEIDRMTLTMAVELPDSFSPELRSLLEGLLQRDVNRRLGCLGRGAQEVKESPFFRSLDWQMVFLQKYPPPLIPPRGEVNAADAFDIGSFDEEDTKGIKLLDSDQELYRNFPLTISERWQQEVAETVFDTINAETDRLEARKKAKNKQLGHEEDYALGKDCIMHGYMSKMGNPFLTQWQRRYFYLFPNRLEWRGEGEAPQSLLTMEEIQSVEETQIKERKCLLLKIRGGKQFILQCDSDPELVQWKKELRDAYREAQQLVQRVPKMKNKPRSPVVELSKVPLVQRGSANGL
# [6] = molecular target: T2, Tyrosine-protein phosphatase non-receptor type 7 (Homo sapiens, UniProt P35236); format: functional
# T2 sequence (P35236 whole entry): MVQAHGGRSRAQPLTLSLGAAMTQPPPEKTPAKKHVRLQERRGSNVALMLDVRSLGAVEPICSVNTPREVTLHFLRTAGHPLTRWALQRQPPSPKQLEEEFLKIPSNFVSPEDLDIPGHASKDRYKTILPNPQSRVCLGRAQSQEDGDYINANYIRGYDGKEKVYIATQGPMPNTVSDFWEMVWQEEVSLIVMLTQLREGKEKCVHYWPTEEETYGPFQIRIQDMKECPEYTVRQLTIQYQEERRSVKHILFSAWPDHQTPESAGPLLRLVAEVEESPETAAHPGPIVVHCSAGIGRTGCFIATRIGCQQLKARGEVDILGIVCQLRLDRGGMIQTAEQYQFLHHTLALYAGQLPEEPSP
# [7] = molecular target: Glyceraldehyde-3-phosphate dehydrogenase (Homo sapiens, UniProt P04406)
# Glyceraldehyde-3-phosphate dehydrogenase, sequence (P04406 whole entry): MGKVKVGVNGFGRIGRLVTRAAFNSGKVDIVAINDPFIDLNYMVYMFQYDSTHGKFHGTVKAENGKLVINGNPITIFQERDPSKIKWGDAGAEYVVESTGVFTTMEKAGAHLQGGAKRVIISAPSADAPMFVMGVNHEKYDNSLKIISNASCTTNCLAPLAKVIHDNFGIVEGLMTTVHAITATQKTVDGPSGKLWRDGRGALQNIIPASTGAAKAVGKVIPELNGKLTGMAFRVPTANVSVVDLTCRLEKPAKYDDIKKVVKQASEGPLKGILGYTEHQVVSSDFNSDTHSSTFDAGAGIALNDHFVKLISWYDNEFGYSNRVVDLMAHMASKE
# [8] = molecular target: T3, Dual specificity protein phosphatase 6 (Rattus norvegicus, UniProt Q64346)
# T3 sequence (Q64346 whole entry): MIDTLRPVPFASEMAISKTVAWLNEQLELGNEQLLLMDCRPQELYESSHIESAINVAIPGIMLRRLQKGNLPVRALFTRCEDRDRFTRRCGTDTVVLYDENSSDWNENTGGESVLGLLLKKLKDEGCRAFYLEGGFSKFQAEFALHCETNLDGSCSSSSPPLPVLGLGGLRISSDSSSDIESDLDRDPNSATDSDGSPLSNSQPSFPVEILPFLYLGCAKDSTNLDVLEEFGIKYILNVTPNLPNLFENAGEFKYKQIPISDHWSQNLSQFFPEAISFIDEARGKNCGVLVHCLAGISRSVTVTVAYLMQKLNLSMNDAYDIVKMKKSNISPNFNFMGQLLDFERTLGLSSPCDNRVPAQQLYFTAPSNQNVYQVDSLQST
# [9] = molecular target: T3, Dual specificity protein phosphatase 6; format: functional
# [10] = molecular target: T4, Short transient receptor potential channel 4 (Mus musculus, UniProt Q9QUQ5); test: mouse TRPC4 channel activators, dose response, cell-based, HEK293 TRPC4/mu-opioid, Fluo-4 calcium (AID 434937); format: functional
# T4 sequence (Q9QUQ5 whole entry): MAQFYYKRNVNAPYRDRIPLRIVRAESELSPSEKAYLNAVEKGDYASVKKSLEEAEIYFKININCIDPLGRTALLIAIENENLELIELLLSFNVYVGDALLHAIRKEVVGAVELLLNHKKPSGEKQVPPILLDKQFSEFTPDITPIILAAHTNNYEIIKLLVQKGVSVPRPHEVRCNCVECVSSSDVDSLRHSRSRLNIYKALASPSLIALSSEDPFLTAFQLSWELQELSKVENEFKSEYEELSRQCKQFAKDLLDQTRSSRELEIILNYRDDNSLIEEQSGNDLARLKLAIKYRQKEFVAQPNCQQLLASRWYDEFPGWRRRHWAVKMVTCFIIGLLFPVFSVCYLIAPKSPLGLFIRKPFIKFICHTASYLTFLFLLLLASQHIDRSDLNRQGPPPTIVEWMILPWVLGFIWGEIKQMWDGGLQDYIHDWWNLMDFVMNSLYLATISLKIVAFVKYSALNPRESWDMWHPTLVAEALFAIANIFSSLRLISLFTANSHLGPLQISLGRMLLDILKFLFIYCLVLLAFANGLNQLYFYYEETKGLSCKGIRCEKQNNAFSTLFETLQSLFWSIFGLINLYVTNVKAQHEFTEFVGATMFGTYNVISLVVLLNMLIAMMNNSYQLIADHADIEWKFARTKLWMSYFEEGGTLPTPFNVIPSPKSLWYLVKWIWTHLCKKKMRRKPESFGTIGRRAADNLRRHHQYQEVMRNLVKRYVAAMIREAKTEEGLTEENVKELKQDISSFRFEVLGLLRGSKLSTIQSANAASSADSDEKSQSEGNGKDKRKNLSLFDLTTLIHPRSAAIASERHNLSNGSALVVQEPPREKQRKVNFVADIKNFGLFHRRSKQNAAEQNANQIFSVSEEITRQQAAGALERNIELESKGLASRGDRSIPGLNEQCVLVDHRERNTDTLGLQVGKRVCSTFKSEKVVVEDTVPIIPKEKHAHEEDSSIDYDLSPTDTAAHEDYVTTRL
# [11] = molecular target: Delta-type opioid receptor (Homo sapiens, UniProt P41143); test: Counterscreen for agonists of heterodimerization of the mu 1 (OPRM1) and delta 1 (OPRD1) opioid receptors: Luminescence-based cell-based high throughput dose response assay to identify agonists of OPRD1 homodimerization. [Related pubchem assays (depositor defined):AID504326, AID504355, AID504692, AID504904, AID504905]; format: functional
# Delta-type opioid receptor, sequence (P41143 whole entry): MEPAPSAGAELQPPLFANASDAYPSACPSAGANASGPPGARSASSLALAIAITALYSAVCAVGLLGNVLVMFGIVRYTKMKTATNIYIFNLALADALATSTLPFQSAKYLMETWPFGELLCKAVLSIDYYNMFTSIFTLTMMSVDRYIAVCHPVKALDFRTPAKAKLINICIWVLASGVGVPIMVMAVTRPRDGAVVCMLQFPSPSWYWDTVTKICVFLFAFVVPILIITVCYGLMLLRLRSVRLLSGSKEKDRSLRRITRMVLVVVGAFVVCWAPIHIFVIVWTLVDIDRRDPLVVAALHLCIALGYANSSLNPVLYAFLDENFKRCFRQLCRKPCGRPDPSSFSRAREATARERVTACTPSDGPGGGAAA
# Mu-type opioid receptor = Mu-type opioid receptor (Homo sapiens, UniProt P35372); test: Counterscreen for agonists of heterodimerization of the mu 1 (OPRM1) and delta 1 (OPRD1) opioid receptors: Luminescence-based cell-based high throughput dose response assay to identify agonists of OPRM1 homodimerization.; format: functional;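 further: U2OS cells expressing OPRM1 and beta-arrestin as split beta-galactosidase partners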
# Mu-type opioid receptor, sequence (P35372 whole entry): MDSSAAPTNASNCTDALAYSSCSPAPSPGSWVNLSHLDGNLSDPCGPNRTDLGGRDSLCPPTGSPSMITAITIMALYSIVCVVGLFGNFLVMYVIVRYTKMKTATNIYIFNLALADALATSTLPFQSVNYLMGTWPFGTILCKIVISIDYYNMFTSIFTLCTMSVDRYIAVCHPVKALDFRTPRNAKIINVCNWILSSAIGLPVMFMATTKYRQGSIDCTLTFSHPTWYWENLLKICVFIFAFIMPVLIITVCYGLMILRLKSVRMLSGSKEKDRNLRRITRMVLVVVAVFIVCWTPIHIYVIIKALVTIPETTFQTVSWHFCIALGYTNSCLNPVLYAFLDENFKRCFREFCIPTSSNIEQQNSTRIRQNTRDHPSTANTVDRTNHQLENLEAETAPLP
# [12] = molecular target: 5-hydroxytryptamine receptor 5A (Homo sapiens, UniProt P47898); test: Counterscreen for agonists of OPRM1-OPRD1 heterodimerization: luminescence-based cell-based high throughput dose response assay to identify agonists of 5-hydroxytryptamine (serotonin) 5A receptor (HTR5A). [Related pubchem assays (depositor defined):AID504326, AID504355, AID504692, AID504904, AID504905]; format: functional
# 5-hydroxytryptamine receptor 5A, sequence (P47898 whole entry): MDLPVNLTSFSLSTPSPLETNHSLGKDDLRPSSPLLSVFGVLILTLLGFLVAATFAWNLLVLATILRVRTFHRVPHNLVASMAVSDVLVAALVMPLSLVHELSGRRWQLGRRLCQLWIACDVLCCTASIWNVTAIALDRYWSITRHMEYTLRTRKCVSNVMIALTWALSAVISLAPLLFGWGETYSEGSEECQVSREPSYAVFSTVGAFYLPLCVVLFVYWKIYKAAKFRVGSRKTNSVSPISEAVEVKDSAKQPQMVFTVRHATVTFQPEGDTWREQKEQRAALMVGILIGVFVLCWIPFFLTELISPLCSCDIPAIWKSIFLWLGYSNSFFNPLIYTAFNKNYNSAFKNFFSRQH
# Vero [13] = test: cells; format: functional, cell-based; conditions: Chlorocebus sabaeus
# Vero [14] = test: cells; format: functional; conditions: Chlorocebus sabaeus
# [15] = Shn3 3'UTR reporter inhibitors, dose response, cell-based, Clone20 osteoblasts, firefly luciferase, cherry-picked (AID 624132); format: functional;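 further: firefly luciferase luminescence from reporter carrying the Shn3 3'UTR in osteoblasts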
# [16] = HepG2 cell cytotoxicity, dose response, cytotoxicity control for Shn3 inhibitor project, CellTiter-Glo, cherry-picked (AID 624134); format: functional, cell-based
# [17] = control 3'UTR Renilla luciferase suppression, dose response, counter-screen for Shn3 inhibitor project, cell-based, Clone20-Shn3RL, cherry-picked (AID 624133); format: functional
# Paired box protein Pax-8 = Paired box protein Pax-8 (Homo sapiens, UniProt Q06710); test: inhibitors of PAX8-driven TPO luciferase reporter, dose response, RMG-I cells, cherry-pick (AID 687027); format: functional, cell-based;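 further: luciferase reporter driven by Pax8 target thyroperoxidase promoter measured by SteadyGlo luminescence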
# Paired box protein Pax-8, sequence (Q06710 whole entry): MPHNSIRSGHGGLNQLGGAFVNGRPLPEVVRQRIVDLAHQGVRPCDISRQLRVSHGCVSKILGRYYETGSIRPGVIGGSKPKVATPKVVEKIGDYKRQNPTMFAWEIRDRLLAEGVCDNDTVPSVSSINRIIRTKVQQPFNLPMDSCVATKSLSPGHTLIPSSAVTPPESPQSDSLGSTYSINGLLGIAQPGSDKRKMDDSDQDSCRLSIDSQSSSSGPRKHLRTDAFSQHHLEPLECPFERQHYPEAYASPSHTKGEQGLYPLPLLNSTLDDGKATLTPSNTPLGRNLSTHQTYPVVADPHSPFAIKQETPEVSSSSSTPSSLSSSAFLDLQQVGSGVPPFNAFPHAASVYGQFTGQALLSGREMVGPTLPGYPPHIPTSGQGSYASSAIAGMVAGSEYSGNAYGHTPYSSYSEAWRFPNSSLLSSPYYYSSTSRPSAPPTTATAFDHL
# Escherichia coli [18] = test: microbe, parasite or virus in culture
# Escherichia coli [19] = test: microbe, parasite or virus in culture; remark: listed apart in the source
# Hexokinase-1 [20] = molecular target: T5, Hexokinase-1 (Homo sapiens, UniProt P19367); test: HK1 enzyme inhibition by HKDC1 hits, SAR follow-up, selectivity assay for HKDC1 inhibitor project, biochemical, set 2, resazurin fluorescence coupled readout (AID 588356); format: functional
# T5 sequence (P19367 whole entry): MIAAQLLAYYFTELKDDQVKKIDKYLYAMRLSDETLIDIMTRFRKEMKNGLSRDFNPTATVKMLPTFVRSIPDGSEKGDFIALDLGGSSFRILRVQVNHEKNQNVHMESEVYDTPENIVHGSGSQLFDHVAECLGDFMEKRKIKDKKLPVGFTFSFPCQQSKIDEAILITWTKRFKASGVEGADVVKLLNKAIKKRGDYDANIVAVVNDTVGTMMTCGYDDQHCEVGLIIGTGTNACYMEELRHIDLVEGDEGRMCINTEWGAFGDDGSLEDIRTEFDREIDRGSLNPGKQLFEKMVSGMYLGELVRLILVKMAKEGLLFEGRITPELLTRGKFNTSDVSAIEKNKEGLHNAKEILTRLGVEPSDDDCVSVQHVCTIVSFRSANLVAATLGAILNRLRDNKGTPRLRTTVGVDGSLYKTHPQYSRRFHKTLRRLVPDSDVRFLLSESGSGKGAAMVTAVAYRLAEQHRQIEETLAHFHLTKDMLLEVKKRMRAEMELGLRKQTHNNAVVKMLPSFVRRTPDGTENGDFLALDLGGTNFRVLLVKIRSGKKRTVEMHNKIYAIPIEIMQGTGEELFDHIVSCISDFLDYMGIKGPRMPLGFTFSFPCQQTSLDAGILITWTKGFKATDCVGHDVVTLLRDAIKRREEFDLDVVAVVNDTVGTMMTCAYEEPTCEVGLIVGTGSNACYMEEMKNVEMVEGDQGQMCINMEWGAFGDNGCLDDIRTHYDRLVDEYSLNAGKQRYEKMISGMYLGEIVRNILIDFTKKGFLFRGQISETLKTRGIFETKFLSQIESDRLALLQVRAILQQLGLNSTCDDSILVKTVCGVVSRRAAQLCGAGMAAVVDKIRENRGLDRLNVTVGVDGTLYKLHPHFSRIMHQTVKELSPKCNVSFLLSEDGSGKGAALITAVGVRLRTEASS
# Hexokinase HKDC1 [21] = molecular target: T6, Hexokinase HKDC1 (Homo sapiens, UniProt Q2TB90); test: HKDC1 hexokinase inhibitors, SAR follow-up, biochemical, set 2 (AID 588355); format: functional
# T6 sequence (Q2TB90 whole entry): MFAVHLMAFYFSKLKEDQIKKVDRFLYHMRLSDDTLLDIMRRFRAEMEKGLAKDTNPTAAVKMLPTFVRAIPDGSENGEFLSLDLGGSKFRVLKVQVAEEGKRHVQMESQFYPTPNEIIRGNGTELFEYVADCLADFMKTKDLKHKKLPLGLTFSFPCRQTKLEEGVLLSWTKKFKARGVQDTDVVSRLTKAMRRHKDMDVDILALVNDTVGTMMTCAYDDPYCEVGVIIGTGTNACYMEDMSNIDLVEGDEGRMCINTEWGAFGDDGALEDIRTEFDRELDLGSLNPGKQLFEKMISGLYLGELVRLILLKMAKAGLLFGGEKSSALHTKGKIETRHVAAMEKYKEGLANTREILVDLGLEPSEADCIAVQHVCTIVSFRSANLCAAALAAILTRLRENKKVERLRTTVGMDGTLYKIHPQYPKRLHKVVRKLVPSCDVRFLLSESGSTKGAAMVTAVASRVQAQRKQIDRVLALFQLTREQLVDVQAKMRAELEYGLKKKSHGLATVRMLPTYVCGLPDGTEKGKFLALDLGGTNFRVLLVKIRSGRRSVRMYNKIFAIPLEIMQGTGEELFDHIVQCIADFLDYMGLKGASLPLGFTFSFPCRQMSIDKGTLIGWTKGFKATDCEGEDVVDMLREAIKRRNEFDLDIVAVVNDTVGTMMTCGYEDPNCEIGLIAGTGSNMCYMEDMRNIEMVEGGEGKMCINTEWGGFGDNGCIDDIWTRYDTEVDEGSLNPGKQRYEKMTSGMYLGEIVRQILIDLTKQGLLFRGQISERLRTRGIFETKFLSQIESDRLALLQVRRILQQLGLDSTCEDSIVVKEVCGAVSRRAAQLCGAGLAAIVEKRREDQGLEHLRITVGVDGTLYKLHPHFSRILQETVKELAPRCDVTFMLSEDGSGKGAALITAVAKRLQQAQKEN
# Hexokinase-1 [22] = molecular target: T5, Hexokinase-1; test: SAR analysis of small molecule inhibitors of hexokinase domain containing I (HKDC1) in the hexokinase 1 selectivity assay. [Related pubchem assays (depositor defined):AID493160, AID493190]; format: functional
# Hexokinase HKDC1 [23] = molecular target: T6, Hexokinase HKDC1; test: SAR analysis of small molecule inhibitors of hexokinase domain containing I (HKDC1). [Related pubchem assays (depositor defined):AID493160, AID493190]; format: functional
# Large T antigen, sequence (P03070 whole entry): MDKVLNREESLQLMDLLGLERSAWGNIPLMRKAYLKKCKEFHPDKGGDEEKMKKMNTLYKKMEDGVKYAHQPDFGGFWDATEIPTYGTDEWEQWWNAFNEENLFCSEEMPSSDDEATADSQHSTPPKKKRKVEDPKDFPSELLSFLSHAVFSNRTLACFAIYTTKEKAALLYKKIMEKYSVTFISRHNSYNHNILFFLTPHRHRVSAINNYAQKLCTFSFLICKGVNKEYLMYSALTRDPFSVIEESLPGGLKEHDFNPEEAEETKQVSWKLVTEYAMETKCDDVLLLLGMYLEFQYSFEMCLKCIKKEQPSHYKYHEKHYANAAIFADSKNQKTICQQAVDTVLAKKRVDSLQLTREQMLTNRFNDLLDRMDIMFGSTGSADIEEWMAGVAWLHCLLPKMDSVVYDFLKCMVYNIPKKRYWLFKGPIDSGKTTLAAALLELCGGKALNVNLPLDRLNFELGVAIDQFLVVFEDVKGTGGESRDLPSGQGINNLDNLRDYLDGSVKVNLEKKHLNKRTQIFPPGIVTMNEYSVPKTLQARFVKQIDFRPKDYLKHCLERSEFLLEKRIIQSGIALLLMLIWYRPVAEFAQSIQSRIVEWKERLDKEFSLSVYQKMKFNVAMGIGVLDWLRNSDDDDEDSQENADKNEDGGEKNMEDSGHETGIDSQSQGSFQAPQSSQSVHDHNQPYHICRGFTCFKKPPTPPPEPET
smiles,measurement,setting,value
O=C1NC(=O)N(c2ccccc2)C(=O)/C1=C/C=C/c1ccco1,IC50,Large T antigen,26.5 µM (active)
same,AC50,[1],0.449 µM (active)
same,AC50,[2],8.29 µM (active)
same,AC50,A-375 [3],> 35 µM (active)
same,AC50,A-375 [4],> 35 µM (active)
CCc1ccccc1NC(=O)CCS(=O)(=O)c1ccc(Br)cc1,EC50,[5],3.48 µM (active)
CC(C)[C@@H](C(N)=O)n1c(=O)[nH]c(=O)n(-c2ccc(Cl)cc2)c1=O,IC50,[6],> 100 µM (not active)
same,IC50,[7],> 100 µM (not active)
same,IC50,[8],> 100 µM (inactive)
same,IC50,[9],> 100 µM (inactive)
CN(C)C(CN=C(S)Nc1cccc(Cl)c1)c1cccnc1 (stereo unspecified),EC50,[10],0.0133 µM (active)
same,EC50,[11],20.5 µM (inactive)
same,EC50,Mu-type opioid receptor,7.49 µM (active)
same,EC50,[12],> 92.5 µM (inactive)
CC(N)C(=O)NC1C2C(=C(O)OC1(C)C(Cl)Cl)C(=O)CC(O)C2O (stereo unspecified),IC50,Vero [13],> 25 µM (active)
same,CC50,Vero [14],3.08 µM (active)
same,AC50,[15],1.85 µM (active)
same,AC50,[16],> 70 µM (inactive)
same,AC50,[17],2.03 µM (active)
same,AC50,Paired box protein Pax-8,0.546 µM (active)
same,AC50,Escherichia coli [18],113 µM (active)
same,AC50,Escherichia coli [19],20.8 µM (active)
Cc1ccccc1N1C(=O)c2ccccc2C1Nc1ccc(Br)cc1 (stereo unspecified),IC50,Hexokinase-1 [20],> 80 µM (inactive)
same,IC50,Hexokinase HKDC1 [21],> 80 µM (inactive)
N#Cc1ccc(CSc2nnc(NC(=O)c3ccc4ccccc4n3)s2)cc1,IC50,Hexokinase-1 [22],> 80 µM (inactive)
same,IC50,Hexokinase HKDC1 [23],> 80 µM (inactive)
